Results: US8188080B2 (Sanford-Burnham Medical Research Institute, priority 2007, dated 2012)
Read-outs that look alike come from different tables or passages of the source.

Assays:
Type in all cases: biochemical
[1] = biological target: VHR (Homo sapiens, UniProt P51452); assay: PTP-catalyzed hydrolysis of DiFMUP, IC50 determination (VHR); conditions: DiFMUP at Km, pH 6.0, 30° C.
Experimental: (§1) The PTP-catalyzed hydrolysis of 6,8-difluoro-4-methylumbelliferyl phosphate (DiFMUP) in the presence of the test compound is assayed at 30° C. in a 60 μL 96 well format reaction system in 0.15 M Bis-Tris, pH 6.0 assay buffer having an ionic strength of 150 mM (adjusted with NaCl) and containing 1 mM dithiotreitol and 5% DMSO. At various concentrations of the compound, the initial rate at fixed DiFMUP concentration (equal to the corresponding Km value for each PTP) was determined using a FLx800 micro plate reader (Bio-Tek Instruments, Inc.), an excitation wave length of 360 nm and measuring the emission of the fluorescent reaction product 6,8-difluoro-7-hydroxy-4-methylcoumarin (DiFMU) at 460 nm. The nonenzymatic hydrolysis of the substrate was corrected by measuring the control without addition of enzyme. The IC50 value was determined by plotting the relative activity versus inhibitor concentrations and fitting to Equation 1 using the software GraphPad Prism™ (GraphPad Software, Inc.).
(§2) [formula] In this case, Vi, is the reaction velocity when the inhibitor concentration is [I], V0 is the reaction velocity with no inhibitor and IC50=Ki+Ki[S]/Km.

[2] = biological target: T1, MKP-1 (Homo sapiens, UniProt P28562); assay: PTP-catalyzed hydrolysis of DiFMUP, IC50 determination (MKP-1)
T1 sequence (P28562 1-367): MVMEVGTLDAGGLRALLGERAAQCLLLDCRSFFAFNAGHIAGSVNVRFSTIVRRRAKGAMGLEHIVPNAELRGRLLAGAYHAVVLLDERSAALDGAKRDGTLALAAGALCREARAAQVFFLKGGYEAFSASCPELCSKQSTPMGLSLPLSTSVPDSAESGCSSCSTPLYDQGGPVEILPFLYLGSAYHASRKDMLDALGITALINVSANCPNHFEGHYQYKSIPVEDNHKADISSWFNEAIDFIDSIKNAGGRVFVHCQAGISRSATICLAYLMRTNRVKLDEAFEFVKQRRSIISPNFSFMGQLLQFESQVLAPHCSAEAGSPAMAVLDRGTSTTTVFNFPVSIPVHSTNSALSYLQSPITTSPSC
Experimental: The PTP-catalyzed hydrolysis of 6,8-difluoro-4-methylumbelliferyl phosphate (DiFMUP) in the presence of the test compound is assayed at 30° C. in a 60 μL 96 well format reaction system in 0.15 M Bis-Tris, pH 6.0 assay buffer having an ionic strength of 150 mM (adjusted with NaCl) and containing 1 mM dithiotreitol and 5% DMSO. […] The nonenzymatic hydrolysis of the substrate was corrected by measuring the control without addition of enzyme. The IC50 value was determined by plotting the relative activity versus inhibitor concentrations and fitting to Equation 1 using the software GraphPad Prism™ (GraphPad Software, Inc.).
as §2

[3] = biological target: T2, CD45 (Homo sapiens, UniProt P08575); assay: PTP-catalyzed hydrolysis of DiFMUP, IC50 determination (CD45)
T2 sequence (P08575 26-1306): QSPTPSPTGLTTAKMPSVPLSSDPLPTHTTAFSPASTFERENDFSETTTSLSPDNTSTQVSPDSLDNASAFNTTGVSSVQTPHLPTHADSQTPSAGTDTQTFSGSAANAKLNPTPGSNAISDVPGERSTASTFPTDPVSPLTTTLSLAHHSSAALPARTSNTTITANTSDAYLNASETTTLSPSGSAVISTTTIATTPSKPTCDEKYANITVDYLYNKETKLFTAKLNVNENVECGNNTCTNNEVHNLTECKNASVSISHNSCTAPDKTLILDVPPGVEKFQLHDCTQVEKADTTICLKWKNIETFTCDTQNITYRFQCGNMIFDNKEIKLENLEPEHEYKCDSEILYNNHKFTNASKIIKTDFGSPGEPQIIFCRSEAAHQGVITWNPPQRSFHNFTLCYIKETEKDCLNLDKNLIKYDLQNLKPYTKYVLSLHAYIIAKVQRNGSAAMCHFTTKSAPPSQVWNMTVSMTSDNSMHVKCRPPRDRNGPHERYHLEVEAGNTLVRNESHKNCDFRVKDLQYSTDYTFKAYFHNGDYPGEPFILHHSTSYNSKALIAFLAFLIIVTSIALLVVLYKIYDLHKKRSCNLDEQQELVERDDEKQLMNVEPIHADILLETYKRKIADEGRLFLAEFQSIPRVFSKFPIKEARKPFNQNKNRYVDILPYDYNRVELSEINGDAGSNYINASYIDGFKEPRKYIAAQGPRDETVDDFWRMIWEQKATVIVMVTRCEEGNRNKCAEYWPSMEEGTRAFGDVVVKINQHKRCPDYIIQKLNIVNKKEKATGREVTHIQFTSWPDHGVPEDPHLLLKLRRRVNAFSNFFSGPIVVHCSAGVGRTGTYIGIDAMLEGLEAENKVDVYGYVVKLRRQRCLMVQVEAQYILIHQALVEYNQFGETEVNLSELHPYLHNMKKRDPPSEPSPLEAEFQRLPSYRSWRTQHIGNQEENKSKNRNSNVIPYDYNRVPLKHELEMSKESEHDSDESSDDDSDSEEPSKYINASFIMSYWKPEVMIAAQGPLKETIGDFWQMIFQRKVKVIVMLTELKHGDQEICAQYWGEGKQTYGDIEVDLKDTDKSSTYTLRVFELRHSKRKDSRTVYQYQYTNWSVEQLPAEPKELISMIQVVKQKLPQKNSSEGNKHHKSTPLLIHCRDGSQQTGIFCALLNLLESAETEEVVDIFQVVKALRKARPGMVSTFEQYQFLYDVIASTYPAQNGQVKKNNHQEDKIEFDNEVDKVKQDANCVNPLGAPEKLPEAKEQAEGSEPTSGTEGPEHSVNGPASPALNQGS
Experimental: as §1, §2

[4] = biological target: T3, PTP1B (Homo sapiens, UniProt P18031); assay: PTP-catalyzed hydrolysis of DiFMUP, IC50 determination (PTP1B)
T3 sequence (P18031 1-435): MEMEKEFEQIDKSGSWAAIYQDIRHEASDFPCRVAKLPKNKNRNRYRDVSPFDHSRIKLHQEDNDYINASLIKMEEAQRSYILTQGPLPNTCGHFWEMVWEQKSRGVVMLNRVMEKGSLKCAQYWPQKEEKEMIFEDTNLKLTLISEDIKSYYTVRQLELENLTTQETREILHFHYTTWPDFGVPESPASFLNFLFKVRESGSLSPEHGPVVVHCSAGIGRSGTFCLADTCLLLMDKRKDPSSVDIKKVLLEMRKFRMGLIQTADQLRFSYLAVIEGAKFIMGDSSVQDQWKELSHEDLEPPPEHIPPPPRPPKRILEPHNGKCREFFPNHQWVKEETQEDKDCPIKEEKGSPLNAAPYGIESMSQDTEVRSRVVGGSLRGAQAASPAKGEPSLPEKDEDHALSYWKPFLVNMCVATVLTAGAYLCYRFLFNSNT
Experimental: as §1, §2

[5] = Table II, DiFMUP at Km, pH 6.0, 30° C.

Sequence of VHR (P51452 whole entry): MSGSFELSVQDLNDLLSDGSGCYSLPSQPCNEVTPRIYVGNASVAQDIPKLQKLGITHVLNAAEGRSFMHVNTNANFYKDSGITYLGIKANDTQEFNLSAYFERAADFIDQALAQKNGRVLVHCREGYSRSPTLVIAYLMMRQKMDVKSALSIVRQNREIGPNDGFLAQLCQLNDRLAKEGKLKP

Structure (SMILES)	IC50 ([1]; Table I, read-out: IC50) [µM]	IC50 ([1]; Table II, read-out: IC50 VHR) [µM]	IC50 [2, 5] [µM]	IC50 [3, 5] [µM]	IC50 [4, 5] [µM]	IC50 [4] [µM]	IC50 [2] [µM]	IC50 [3] [µM]
O=C1/C(=C/c2cn(-c3ccccc3)nc2-c2ccc(OCc3ccc(Cl)cc3)cc2)SC(=S)N1CCS(=O)(=O)O [Compound 10, (Z)-2-[5-({3-[4-(4-chlorobenzyloxy)phenyl]-1-phenyl-1H-pyrazol-4-yl}methylene)-4-oxo-2-thioxothiazolidin-3-yl]ethane sulfonic acid]	0.018	0.018	0.457	0.46	0.456	–	–	–
O=C1/C(=C/c2cn(-c3ccccc3)nc2-c2ccc(OCc3ccccc3)cc2)SC(=S)N1CCS(=O)(=O)O [Compound 9]	0.078	0.078	0.779	0.609	–	1.75	–	–
O=C1/C(=C/c2cn(-c3ccccc3)nc2-c2ccc(S(=O)(=O)N3CCOCC3)cc2)SC(=S)N1CCS(=O)(=O)O [Compound 14]	2.44	0.071	–	–	–	0.592	0.474	0.303
